Patent US20090143279A1 (priority 2007, published 2009)
Where two headings read alike, the source gives them in different places.

Assays:
[1] = system: C2C12 myotubes
[2] = system: nuOXPHOS transcripts; assay type: cell-based, mouse
[3] = system: OXPHOS gene expression; assay type: cell-based, mouse
[4] = system: reactive oxygen species; assay type: cell-based, mouse
[5] = system: mitochondrial membrane potential; assay type: cell-based, mouse
[6] = system: cytochrome c; assay type: cell-based, mouse
Chain of cytochrome c (P62897 whole entry): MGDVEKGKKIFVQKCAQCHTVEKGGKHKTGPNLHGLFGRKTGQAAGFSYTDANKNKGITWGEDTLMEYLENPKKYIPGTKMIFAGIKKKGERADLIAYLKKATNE

[7] = system: mtOXPHOS transcripts; assay type: cell-based, mouse
[8] = system: cellular dehydrogenase activity
[9] = composite Z-score vs DMSO, Conc 20 μM
[10] = composite Z-score vs mock-treated (DMSO) wells, Conc 20 μM
[11] = normalized composite Z-score vs mock-treated (DMSO) wells, Conc 20 μM

| Compound | Viability [1, 9] | nucOX [2, 9] | GE-HTS [3, 9] | ROS [4, 9] | ΔΨm [5, 9] | cyt c [6, 9] | mitoOX [7, 9] | MTT [8, 9] | further results |
| --- | --- | --- | --- | --- | --- | --- | --- | --- | --- |
| C[C@H](CCC(=O)O)[C@H]1CC[C@H]2[C@@H]3CC[C@@H]4CCCC[C@]4(C)[C@H]3CC[C@]12C [ursocholanic acid] | 0.050 | −0.946 | −0.920 | 0.978 | −1.738 | 1.303 | −0.657 | −0.246 | – |
| COc1cc2c(cc1OC)-c1c(oc3c4c(ccc3c1=O)OC(C(C)C)C4)CO2 (stereo not drawn) [dehydrodihydrorotenone, reference compound] | – | – | – | – | – | – | – | – | Viability [1, 10]: −0.172; nucOX [2, 10]: −0.290; GE-HTS [3, 10]: −0.001; ROS [4, 10]: 0.051; ΔΨm [5, 10]: 0.125; cyt c [6, 10]: −0.211; mitoOX [7, 10]: 0.535; MTT [8, 10]: −3.034 |
| C[C@H]1CC[C@]2(NC1)O[C@H]1C[C@H]3[C@@H]4CC[C@H]5C[C@@H](O[C@@H]6O[C@H](CO)[C@H](O[C@@H]7O[C@H](CO)[C@@H](O)[C@H](O[C@@H]8OC[C@@H](O)[C@H](O)[C@H]8O)[C@H]7O[C@@H]7O[C@H](CO)[C@@H](O)[C@H](O)[C@H]7O)[C@H](O)[C@H]6O)CC[C@]5(C)[C@H]4CC[C@]3(C)[C@H]1[C@@H]2C [tomatine] | −4.793 | −2.158 | −2.151 | −2.084 | −2.423 | −3.979 | −1.725 | −4.122 | – |
| COC(=O)N/N=C/c1c[n+]([O-])c2ccccc2[n+]1[O-] [carbadox] | −0.905 | −0.599 | −0.802 | −0.079 | −1.394 | −0.250 | −1.076 | −1.334 | – |
| COc1cc(O)c2c(=O)cc(-c3ccc(OC)c(-c4c(O)cc(O)c5c(=O)cc(-c6ccc(O)cc6)oc45)c3)oc2c1 [ginkgetin] | −1.523 | −2.585 | −2.228 | −1.347 | −4.324 | −3.027 | −1.101 | −3.855 | – |
| CC(C)[C@@H](C)/C=C/[C@@H](C)[C@H]1CC[C@H]2C3=CC=C4C[C@@H](O)CC[C@]4(C)[C@H]3CC[C@]12C [ergosterol] | −0.792 | 0.420 | 0.231 | −0.198 | −0.489 | 0.386 | −0.240 | −1.864 | – |
| COc1cc(/C=C/C(=O)O)cc(OC)c1OC [sinapic acid methyl ether] | – | – | – | – | – | – | – | – | Viability [1]: −0.934; nucOX [2]: −1.058; GE-HTS [3]: −1.103; ROS [4]: 0.722; ΔΨm [5]: −0.716; cyt c [6]: 0.207; mitoOX [7]: −1.015; MTT [8]: −0.736 |
| totarol acetate | −0.273 | 0.830 | 0.574 | 0.452 | −0.556 | 1.207 | −0.125 | 0.730 | – |
| CC[C@H]1OC(=O)[C@H](C)[C@@H](O[C@H]2C[C@@](C)(OC)[C@@H](O)[C@H](C)O2)[C@H](C)[C@@H](O[C@@H]2O[C@H](C)C[C@H](N(C)C)[C@H]2O)[C@](C)(OC)C[C@@H](C)C(=O)[C@H](C)[C@@H](O)[C@]1(C)O [clarithromycin] | −0.763 | −2.046 | −2.161 | 0.293 | 0.434 | −1.095 | −1.928 | −1.086 | – |
| COc1cc(O)c(C(=O)/C=C/c2ccccc2)c(OC)c1 [flavokawain B] | 0.583 | −1.423 | −1.453 | 0.292 | −0.302 | 0.708 | −1.291 | −0.298 | – |
| CC1=C(/C=C/C(C)=C/C=C/C(C)=C/C=C/C=C(C)/C=C/C=C(C)/C=C/[C@@]23O[C@]2(C)C[C@@H](O)CC3(C)C)C(C)(C)C[C@H](O)C1 [antheraxanthin] | – | – | – | – | – | – | – | – | Viability [1, 11]: −0.496; nucOX [2, 11]: 0.026; GE-HTS [3, 11]: 0.013; ROS [4, 11]: 0.244; ΔΨm [5, 11]: −0.305; cyt c [6, 11]: −0.206; mitoOX [7, 11]: −0.011; MTT [8, 11]: −0.804 |
| CC(=O)O[C@@H]1CC2C(C)(C)CCC[C@]2(C)C2CC[C@]3(C)C(=CC(=O)O[C@H]3c3ccoc3)[C@@]21C (stereo partly drawn) [deoxodeoxydihydrogedunin] | – | – | – | – | – | – | – | – | Viability [1, 10]: 0.876; nucOX [2, 10]: −1.370; GE-HTS [3, 10]: −1.452; ROS [4, 10]: 0.995; ΔΨm [5, 10]: 0.941; cyt c [6, 10]: 0.837; mitoOX [7, 10]: −1.397; MTT [8, 10]: −0.551 |
